Data reported in PubChem BioAssay AID1963829 (Molecular Pharmacology Branch, DTP, NCI, 2024).

Tested on: 935938-334-R-J1-PDC complex spheroid viability
Assay: Anticancer human tumor 935938-334-R-J1-PDC patient-derived small intestine adenocarcinoma cell line growth inhibition [POLQ]
Details: for IC50: curve of first compound; for viability, T/C: stronger effect = lower value
Description: Multicellular complex tumor spheroid response to Polymerase (POL) inhibitors (novobiocin, ART-558, RP6685) in combination with a variety of drugs and investigational agents in selected tumor cell lines
The POL inhibitors (novobiocin, ART-558, and RP6685) were evaluated both individually and in combination with standard of care and investigational anticancer small molecules within a complex spheroid model of solid tumors. . Complex spheroids include a stromal component modeled by human endothelial cells (HUVEC) and fibroblasts modeled by human mesenchymal stem cells (MSCs). The concentration ranges selected for each drug and investigational agent were based upon clinically achievable concentrations if the clinical Cmax of the agent was known.
Compounds. The drugs and investigational agents: novobiocin (NSC847541), ART-558 (NSC835418), RP-6685 (NSC848927), peposertib (NSC802822), ceralasertib (NSC780249), elimusertib (NSC800525), camonsertib (NSC841442), AZD-1390 (NSC803789), olaparib (NSC753686), talazoparib (NSC767125), rucaparib (NSC756644), sotorasib (NSC818433), MRTX-1133 (NSC836407), SN-38 (NSC673596), topotecan (NSC609699), epotoside (NSC141540), doxorubicin (NSC123127), gemcitabine (NSC613327), 5-fluorouracil (NSC19893), paclitaxel (NSC125973), vemurafenib (NSC761431), MSA-2 (NSC828583), SN-011 (NSC837082), adavosertib (NSC754352), prexasertib (NSC758257), carboplatin (NSC241240) and oxaliplatin (NSC266046), were obtained from the National Cancer Institute (NCI) Developmental Therapeutics Program Chemical Repository (21). The FDA-approved anticancer drug set is available from the Developmental Therapeutics Program at https://dtp.cancer.gov/organization/dscb/obtaining/. […] The stock solutions were prepared in dimethyl sulfoxide (DMSO, Sigma-Aldrich, St. Louis, MO, cat. D2650), except for the platinum compounds which were prepared in saline (Quality Biological, Gaithersburg, MD, cat. 114-055-101), at 800-fold the tested concentration and stored at -70 degrees C prior to their use. All drugs and investigational agents were tested over a range starting from a high concentration at or near the clinical Cmax and decreasing in half-log increments. If the clinical Cmax for an agent had not been determined, the highest concentration tested was 10 microM, except for SN-38, which was tested at a high concentration of 1 microM.
Cell Culture. All cells were maintained in an incubator at 37 degrees C and 5% CO2 with 95% humidity. The PDC lines were cultured according to standard operating procedures established by the NCI PDMR (https://pdmr.cancer.gov). Table 3 of the manuscript, lists the cell lines along with the number of the three cell types plated to form the mct-spheroids and media for tumor cell growth. After thawing, all PDC lines, except 997537-175-T-J1-PDC and 415267-285-R-J2-PDC, were cultured in Matrigel-coated flasks prepared with a working solution of 1X Ham's F-12 nutrient mix, without supplementation (Thermo Fisher Scientific, cat. 11765054), 100 U/mL penicillin-streptomycin (Thermo Fisher Scientific, cat. 15140122), and 2.5% Matrigel (Corning Inc., Corning, NY, cat. 354248) for the first three passages. The two PDC lines 997537-175-T-J1-PDC and 415267-285-R-J2-PDC were cultured on uncoated flasks. The 857933-349-R-J2-PDC line was cultured in 6C/Colon 1B media containing advanced DMEM/F-12 (Thermo Fisher Scientific, cat. 12634028), 10 mM HEPES (Thermo Fisher Scientific, cat. 15630080), 1X GlutaMAX supplement (Thermo Fisher Scientific, cat. 35050061), 0.1 mg/mL primocin (InvivoGen, San Diego, CA, cat. ant-pm-2), 10% defined fetal bovine serum, heat inactivated (HyClone Laboratories Inc., Logan, UT, cat. SH30070.03HI), 50% L-WRN conditioned media (ATCC, cat. CRL-3276), 1.25 mM N-Acetyl-L-cysteine (Sigma-Aldrich, cat. A9165), 10 mM nicotinamide (Sigma-Aldrich, cat. N0636), 1X B-27 supplement (Thermo Fisher Scientific, cat. 17504044), 1X N-2 supplement (Thermo Fisher Scientific, cat. […]

[1] = second compound 0.0316 µM, first compound 0.0316 µM
[2] = second compound 0.0316 µM, first compound 0.1 µM
[3] = second compound 0.0316 µM, first compound 0.316 µM
[4] = second compound 0.0316 µM, first compound 1 µM
[5] = second compound 0.0316 µM, first compound 3.16 µM
[6] = second compound 0.0316 µM, first compound 10 µM
[7] = second compound 0.1 µM, first compound 0.0316 µM
[8] = second compound 0.1 µM, first compound 0.1 µM
[9] = second compound 0.1 µM, first compound 0.316 µM
[10] = second compound 0.1 µM, first compound 1 µM
[11] = second compound 0.1 µM, first compound 3.16 µM
[12] = second compound 0.1 µM, first compound 10 µM
[13] = second compound 0.316 µM, first compound 0.0316 µM
[14] = second compound 0.316 µM, first compound 0.1 µM
[15] = second compound 0.316 µM, first compound 0.316 µM
[16] = second compound 0.316 µM, first compound 1 µM
[17] = second compound 0.316 µM, first compound 3.16 µM
[18] = second compound 0.316 µM, first compound 10 µM
[19] = second compound 1 µM, first compound 0.0316 µM
[20] = second compound 1 µM, first compound 0.1 µM
[21] = second compound 1 µM, first compound 0.316 µM
[22] = second compound 1 µM, first compound 1 µM
[23] = second compound 1 µM, first compound 3.16 µM
[24] = second compound 1 µM, first compound 10 µM
[25] = second compound 3.16 µM, first compound 0.0316 µM
[26] = second compound 3.16 µM, first compound 0.1 µM
[27] = second compound 3.16 µM, first compound 0.316 µM
[28] = second compound 3.16 µM, first compound 1 µM
[29] = second compound 3.16 µM, first compound 3.16 µM
[30] = second compound 3.16 µM, first compound 10 µM
[31] = second compound 10 µM, first compound 0.0316 µM
[32] = second compound 10 µM, first compound 0.1 µM
[33] = second compound 10 µM, first compound 0.316 µM
[34] = second compound 10 µM, first compound 1 µM
[35] = second compound 10 µM, first compound 3.16 µM
[36] = second compound 10 µM, first compound 10 µM
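Note: spheroids exposed to drugs for seven days before viability read.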
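Throughout, for viability, T/C: 100% = DMSO vehicle control wells.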

CC(C)n1c(=O)n(C)c2cnc3cc(F)c(-c4ccc(OCCCN5CCCCC5)nc4)cc3c21 + COC1C(OC(N)=O)C(O)C(Oc2ccc3c(O)c(NC(=O)c4ccc(O)c(CC=C(C)C)c4)c(=O)oc3c2C)OC1(C)C
IC50 (second compound 0.0316 µM): > 10000 nM
IC50 (second compound 0.1 µM): > 10000 nM
IC50 (second compound 0.316 µM): > 10000 nM
IC50 (second compound 1 µM): > 10000 nM
IC50 (second compound 3.16 µM): > 10000 nM
IC50 (second compound 10 µM): > 10000 nM
viability, T/C [1]: 124%
viability, T/C [2]: 124%
viability, T/C [3]: 108%
viability, T/C [4]: 95.4%
viability, T/C [5]: 138%
viability, T/C [6]: 133%
viability, T/C [7]: 123%
viability, T/C [8]: 109%
viability, T/C [9]: 79%
viability, T/C [10]: 135%
viability, T/C [11]: 139%
viability, T/C [12]: 92.8%
viability, T/C [13]: 98%
viability, T/C [14]: 105%
viability, T/C [15]: 118%
viability, T/C [16]: 119%
viability, T/C [17]: 108%
viability, T/C [18]: 85.2%
viability, T/C [19]: 81.3%
viability, T/C [20]: 117%
viability, T/C [21]: 99.3%
viability, T/C [22]: 113%
viability, T/C [23]: 104%
viability, T/C [24]: 120%
viability, T/C [25]: 95%
viability, T/C [26]: 115%
viability, T/C [27]: 89.6%
viability, T/C [28]: 117%
viability, T/C [29]: 106%
viability, T/C [30]: 90.3%
viability, T/C [31]: 94.4%
viability, T/C [32]: 135%
viability, T/C [33]: 122%
viability, T/C [34]: 160%
viability, T/C [35]: 133%
viability, T/C [36]: 101%

CC1COCCN1c1cc(-c2ccnn2C)c2ccnc(-c3ccn[nH]3)c2n1 (centres undefined) + COC1C(OC(N)=O)C(O)C(Oc2ccc3c(O)c(NC(=O)c4ccc(O)c(CC=C(C)C)c4)c(=O)oc3c2C)OC1(C)C
IC50 (second compound 0.0316 µM): 72.7 nM
IC50 (second compound 0.1 µM): 59.2 nM
IC50 (second compound 0.316 µM): 136 nM
IC50 (second compound 1 µM): 51.2 nM
IC50 (second compound 3.16 µM): 93 nM
IC50 (second compound 10 µM): 80.8 nM
viability, T/C [1]: 73.1%
viability, T/C [2]: 41%
viability, T/C [3]: 20.7%
viability, T/C [4]: 13.7%
viability, T/C [5]: 13.8%
viability, T/C [6]: 16.3%
viability, T/C [7]: 66.6%
viability, T/C [8]: 36%
viability, T/C [9]: 20.7%
viability, T/C [10]: 14.3%
viability, T/C [11]: 16.4%
viability, T/C [12]: 19.7%
viability, T/C [13]: 73.1%
viability, T/C [14]: 61%
viability, T/C [15]: 19.9%
viability, T/C [16]: 15%
viability, T/C [17]: 18%
viability, T/C [18]: 21.3%
viability, T/C [19]: 59.7%
viability, T/C [20]: 36.5%
viability, T/C [21]: 18.8%
viability, T/C [22]: 14.9%
viability, T/C [23]: 14.8%
viability, T/C [24]: 20.3%
viability, T/C [25]: 78.9%
viability, T/C [26]: 48%
viability, T/C [27]: 19.4%
viability, T/C [28]: 15%
viability, T/C [29]: 18.9%
viability, T/C [30]: 16.1%
viability, T/C [31]: 74.9%
viability, T/C [32]: 44.1%
viability, T/C [33]: 24.4%
viability, T/C [34]: 14.4%
viability, T/C [35]: 14.7%
viability, T/C [36]: 20.7%
